Reference: patent US20210300940A1 (Merck Patent GmbH, priority 2018, published 2021)
pIC50: −log10 of the molar value.

Columns and labels:
TLR7 = molecular target: T1, TLR7 (Homo sapiens, UniProt Q9NYK1); assay: HEK/293 TLR7 Cell Assay; assay type: cell-based; details: TLR7/NFKb HEK cells, R848 agonist 10 uM final concentration, Steady-Glo readout; read-out: TLR7 potency
T1 construct: expressed in transfected cells; host or cells: HEK/293 cells carrying TLR7 and an NF-kB luciferase reporter
T1 sequence (Q9NYK1 27-1049): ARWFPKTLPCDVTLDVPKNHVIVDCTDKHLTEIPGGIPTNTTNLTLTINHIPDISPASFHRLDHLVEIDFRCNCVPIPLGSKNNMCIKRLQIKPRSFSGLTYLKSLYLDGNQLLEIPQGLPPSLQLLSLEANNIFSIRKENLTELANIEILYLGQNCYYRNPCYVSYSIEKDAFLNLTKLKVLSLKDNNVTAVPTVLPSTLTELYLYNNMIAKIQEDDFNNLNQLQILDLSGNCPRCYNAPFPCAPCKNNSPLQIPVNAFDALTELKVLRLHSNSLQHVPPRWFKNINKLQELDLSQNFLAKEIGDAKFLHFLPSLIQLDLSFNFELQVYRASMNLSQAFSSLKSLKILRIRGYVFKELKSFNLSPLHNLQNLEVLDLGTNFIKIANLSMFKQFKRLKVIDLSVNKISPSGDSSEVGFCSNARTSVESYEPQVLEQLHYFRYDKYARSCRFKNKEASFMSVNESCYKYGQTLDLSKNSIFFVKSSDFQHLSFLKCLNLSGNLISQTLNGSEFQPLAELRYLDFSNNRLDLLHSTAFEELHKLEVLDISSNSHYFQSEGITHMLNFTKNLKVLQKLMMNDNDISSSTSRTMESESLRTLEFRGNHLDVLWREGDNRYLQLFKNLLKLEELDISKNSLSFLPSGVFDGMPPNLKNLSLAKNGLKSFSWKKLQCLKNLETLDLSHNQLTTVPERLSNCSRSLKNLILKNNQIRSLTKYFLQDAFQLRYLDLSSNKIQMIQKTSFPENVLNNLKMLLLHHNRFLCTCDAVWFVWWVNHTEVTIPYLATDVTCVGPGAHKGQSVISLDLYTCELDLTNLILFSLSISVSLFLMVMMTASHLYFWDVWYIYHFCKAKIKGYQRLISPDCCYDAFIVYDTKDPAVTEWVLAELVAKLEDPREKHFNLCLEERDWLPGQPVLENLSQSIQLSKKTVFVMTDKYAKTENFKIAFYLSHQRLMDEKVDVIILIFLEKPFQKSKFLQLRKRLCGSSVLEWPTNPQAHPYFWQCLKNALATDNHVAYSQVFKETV
Procedure, shortened: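 TLR7/NF-κB reporter HEK293 cells, 5000/well, cultured 24 h, then preincubated 30 min with compound before R848 agonist (10 uM final). After 5 h stimulation, Steady-Glo luciferase luminescence read.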

TLR8 = molecular target: T2, TLR8 (Homo sapiens, UniProt Q9NR97); assay: HEK/293 TLR8 Cell Assay; assay type: cell-based; details: HEK cells, R848 agonist 30 uM final concentration, Steady-Glo readout; read-out: TLR8 potency
T2 construct: expressed in transfected cells; host or cells: HEK/293 reporter cells (NF-kB luciferase)
T2 sequence (Q9NR97 27-1041): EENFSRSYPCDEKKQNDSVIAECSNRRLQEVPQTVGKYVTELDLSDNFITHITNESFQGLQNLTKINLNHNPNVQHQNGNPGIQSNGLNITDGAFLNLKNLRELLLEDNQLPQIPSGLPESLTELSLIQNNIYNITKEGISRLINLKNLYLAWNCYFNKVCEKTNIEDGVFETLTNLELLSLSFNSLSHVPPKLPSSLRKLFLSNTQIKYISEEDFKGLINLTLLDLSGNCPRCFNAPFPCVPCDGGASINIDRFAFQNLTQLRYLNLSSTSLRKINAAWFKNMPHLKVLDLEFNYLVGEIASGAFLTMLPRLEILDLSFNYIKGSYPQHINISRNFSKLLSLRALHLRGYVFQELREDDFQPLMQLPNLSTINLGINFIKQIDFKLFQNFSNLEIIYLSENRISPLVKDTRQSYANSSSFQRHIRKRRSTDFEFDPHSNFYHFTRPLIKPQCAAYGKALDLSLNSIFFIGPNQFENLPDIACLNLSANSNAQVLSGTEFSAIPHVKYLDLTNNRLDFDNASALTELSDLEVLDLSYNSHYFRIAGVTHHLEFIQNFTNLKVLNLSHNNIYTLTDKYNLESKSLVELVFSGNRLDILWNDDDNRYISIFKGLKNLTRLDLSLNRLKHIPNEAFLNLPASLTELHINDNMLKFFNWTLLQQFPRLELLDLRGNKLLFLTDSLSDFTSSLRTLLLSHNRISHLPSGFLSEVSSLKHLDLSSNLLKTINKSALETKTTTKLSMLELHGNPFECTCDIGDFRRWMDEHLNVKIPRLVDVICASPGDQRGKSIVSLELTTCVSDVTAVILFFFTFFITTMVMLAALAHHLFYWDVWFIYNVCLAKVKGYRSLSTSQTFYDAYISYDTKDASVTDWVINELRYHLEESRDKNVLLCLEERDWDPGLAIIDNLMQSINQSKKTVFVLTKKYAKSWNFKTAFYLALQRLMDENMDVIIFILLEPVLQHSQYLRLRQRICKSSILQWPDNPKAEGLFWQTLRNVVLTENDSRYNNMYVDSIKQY

Structure (SMILES)	pIC50 (TLR7)	pIC50 (TLR8)
CNS(=O)(=O)CCCN[C@@H]1C[C@H](C)CN(c2ccc(C(F)(F)F)c3ncccc23)C1 [Example 32, 3-[(3R,5S)-5-Methyl-1-(8-trifluoromethyl-quinolin-5-yl)-piperidin-3-ylamino]-propane-1-sulfonic acid methylamide]	> 7.12	> 7.12
C[C@@H]1CN(c2ccc(C#N)c3nccnc23)C[C@H](C(=O)NCC(O)C(F)(F)F)O1 (stereo partly drawn) [Example 237, (2R,6R)-4-(8-Cyano-quinoxalin-5-yl)-6-methyl-morpholine-2-carboxylic acid (3,3,3-trifluoro-2-hydroxy-propyl)-amide]	> 7.12	> 7.12
C[C@@H]1CN(c2ccc(C#N)c3nccnc23)C[C@H](C(=O)NCC2CN(C)CCO2)O1 (stereo partly drawn) [Example 240, (2R,6R)-4-(8-Cyano-quinoxalin-5-yl)-6-methyl-morpholine-2-carboxylic acid (4-methyl-morpholin-2-ylmethyl)-amide]	> 7.12	> 7.12
C[C@@H]1CN(c2ccc(C#N)c3nccnc23)C[C@H](C(=O)N2CC(N3CC(C)(O)C3)C2)O1 [Example 235, 8-[(2R,6R)-2-(3-Hydroxy-3-methyl-[1,3′]biazetidinyl-1′-carbonyl)-6-methyl-morpholin-4-yl]-quinoxaline-5-carbonitrile]	6.82 to 7.12	6.82 to 7.12
C[C@H]1C[C@@H](NCC2(O)CCOCC2)CN(c2ccc(C(F)(F)F)c3ncccc23)C1 [Example 50, 4-{[(3R,5S)-5-Methyl-1-(8-trifluoromethyl-quinolin-5-yl)-piperidin-3-ylamino]-methyl}-tetrahydro-pyran-4-ol]	> 7.12	> 7.12
C[C@H]1C[C@@H](NCC(C)(F)C(=O)O)CN(c2ccc(C#N)c3nccnc23)C1 (stereo partly drawn) [Example 15, 3-[(3R,5S)-1-(8-Cyano-quinoxalin-5-yl)-5-methyl-piperidin-3-ylamino]-2-fluoro-2-methyl-propionic acid]	> 7.12	> 7.12
C[C@H]1C[C@@H](NCCC(=O)NO)CN(c2ccc(C(F)(F)F)c3ncccc23)C1 [Example 36, N-Hydroxy-3-[(3R,5S)-5-methyl-1-(8-trifluoromethyl-quinolin-5-yl)-piperidin-3-ylamino]-propionamide]	> 7.12	> 7.12
Cc1c(F)cc(N2C[C@@H](C)C[C@@H](NC(=O)[C@@H](N)CC(N)=O)C2)c2cccnc12 [Example 129, (2S)-2-amino-N-[(3R,5S)-1-(7-fluoro-8-methylquinolin-5-yl)-5-methylpiperidin-3-yl]butanediamide]	6.82 to 7.12	> 7.12

Next, values leading:

pIC50 (TLR7)	pIC50 (TLR8)	Structure (SMILES)
6.82 to 7.12	6.82 to 7.12	C[C@@H]1CN(c2cnc(C(F)(F)F)c3ncccc23)C[C@H](CN2CCN(C)CC2)O1 [Example 387, 5-[(2R,6S)-2-Methyl-6-(4-methyl-piperazin-1-ylmethyl)-morpholin-4-yl]-8-trifluoromethyl-[1,7]naphthyridine]
> 7.12	> 7.12	C[C@H]1C[C@@H](NC(=O)C2CCCCN2)CN(c2ccc(C(F)(F)F)c3ncccc23)C1 (stereo partly drawn) [Example 181, Piperidine-2-carboxylic acid [(3R,5S)-5-methyl-1-(8-trifluoromethyl-quinolin-5-yl)-piperidin-3-yl]-amide]
> 7.12	< 6.82	C[C@@H]1CN(c2ccc(C#N)c3ncncc23)C[C@H](CN2CCN(C)CC2)O1 [Example 224, 5-[(2R,6S)-2-Methyl-6-(4-methyl-piperazin-1-ylmethyl)-morpholin-4-yl]-quinazoline-8-carbonitrile]
> 7.12	> 7.12	Cc1c(F)cc(N2C[C@@H](C)O[C@@H](C(=O)N[C@H]3CNC[C@H]3F)C2)c2cccnc12 [Example 298, (2R,6R)-4-(7-Fluoro-8-methyl-quinolin-5-yl)-6-methyl-morpholine-2-carboxylic acid ((3S,4R)-4-fluoro-pyrrolidin-3-yl)-amide]
> 7.12	> 7.12	CN1CCC(F)(CNC(=O)[C@@H]2CN(c3ccc(C#N)c4nccnc34)C[C@H](C(F)(F)F)O2)CC1 (single isomer, unassigned) [Example 360]
